SMILES strings stand for the structures.

Results on 3 compounds are retold here after patent publication US5922554A, “Inhibition of cellular uptake of cholesterol” (The Regents of the University of California, priority 1996, dated 1999).

One series has as its system fibroblast monolayers. The experiment in a line: Influx/uptake of ^3 H-FC (free cholesterol) from labeled LDL (or plasma, HDL) into normal fibroblast monolayers. The class given is cell-based, human. The settings on record: for FC Influx: LDL-FC 60.2 μg ml^-1, 60 min, 37° C., 30 min preequilibration with inhibitor at: Na-azide 1 mM, NH4-vanadate 1 mM, NEM 2 mM, KNO3 50 mM, progesterone 30 μM, forskolin 30 μM, IBMX 100 μM, chloroquine 20 μM; for effect on LDL FC uptake: Table 3 conditions; for FC Influx, % (PBS only = 100.0): same concentrations and conditions as Table 3 FC influx, 60 min.

The next series relates to fibroblasts. The settings on record: Hokland et al. 1993; cited from earlier work.
In another series the test system is fibroblast ACAT. The settings on record: 30 μM; Goldstein et al. 1978; cited from earlier work.
A further series has as its system hepatocytes. The settings on record: 30 μM; Lange 1994; cited from earlier work.
Series [1] deals with human hepatoblastoma (HepG2) cells. The settings on record: Lange 1994; cited from earlier work.

In the case of `C=C[C@@]1(C)CC(=O)[C@]2(O)[C@@]3(C)[C@@H](O)CCC(C)(C)[C@@H]3[C@H](O)[C@H](OC(C)=O)[C@@]2(C)O1` [Forskolin], in the series with fibroblast monolayers, the “LDL-FC influx (discussion, words)” value is “unaffected”; the “inhibition of LDL-FC pathway (summary, words)” value (“inhibition of LDL-FC pathway” for short) was “not inhibited”; the “FC Influx” value was 1.39 ± 0.01 µg; the “effect on LDL FC uptake” value is listed as “no effect”. The “FC Influx, % (PBS only = 100.0)” value in the series with fibroblast monolayers is 105.3%. Also, the “transfer of newly-synthesized cholesterol to plasma membrane” value in the series with fibroblasts is on record as “stimulated”.
As to `CC(C)Cn1c(=O)n(C)c(=O)c2[nH]cnc21` [IBMX, isobutyl methylxanthine], in the series with fibroblast monolayers, the “LDL-FC influx (discussion, words)” value is given as “unaffected”; the “inhibition of LDL-FC pathway” value is listed as “not inhibited”; the “FC Influx” value was found to be 1.46 ± 0.04 µg; the “effect on LDL FC uptake” value is “no effect”. The “FC Influx, % (PBS only = 100.0)” value in the series with fibroblast monolayers turned out to be 110.8%. Further, in the series on fibroblasts, the “transfer of newly-synthesized cholesterol to plasma membrane” value was “stimulated”.
`CC(=O)[C@H]1CC[C@H]2[C@@H]3CCC4=CC(=O)CC[C@]4(C)[C@H]3CC[C@]12C` [Progesterone]: in the series on fibroblast monolayers, the “LDL-FC influx (discussion, words)” value was “without effect”; the “inhibition of LDL-FC pathway” value is on record as “not inhibited”; the “FC Influx” value came to 1.28 ± 0.06 µg; the “effect on LDL FC uptake” value is “no effect”. The “FC Influx, % (PBS only = 100.0)” value in the series on fibroblast monolayers worked out at 97.3%. Besides, the “inhibition of fibroblast ACAT activity” value in the series with fibroblast ACAT is listed as “maximally inhibit”. Moreover, the “inhibition of cholesterol transport in hepatocytes” value in the series with hepatocytes was “inhibit”. In addition, in series [1], the “transfer of FC from plasma membrane to cell interior” value is “promoted the transfer of FC”.
